Measured values: US4469795A, “Radioassay for monosialoglycosphingolipid (GM1) ganglioside concentration” (priority 1981, dated 1984)

Tested on: iodotoxin binding to liver membranes
Set-up: species or system rat

| Substance | inhibition of liver membrane toxin binding | time until binding of iodotoxin to GM1 ganglioside is complete | inhibition of iodotoxin binding to liver membranes by the unlabelled enterotoxin | reversal of inhibition of iodotoxin binding to liver membranes |
| --- | --- | --- | --- | --- |
| monosialoglycosphingolipid GM1 ganglioside | greater than 94% | thirty |  |  |
| cholera toxin |  |  | did not occur | greater than 92% |
